Molecules are shown by their SMILES.

This passage reports AC50 results from patent US8501953B2, “PKM2 modulators for use in the treatment of cancer” (Agios Pharmaceuticals, Inc, priority 2009, dated 2013).

The target in this assay is PKM2 (Homo sapiens, UniProt P14618). Kind of assay: PKM2 Assay (activation; LDH-coupled, NADH absorbance at 340 nm). Conditions: PKM2 50 ng/well, ADP 0.7 mM, PEP 0.15 mM, no FBP in Reaction Mix. The assay is classed as biochemical. As for the experimental part: • PKM2 stock enzyme solution was diluted in Reaction Buffer • 2 μL of compound was added into each well first, and then 180 μL of the Reaction Mix was added. • Reaction mixture with compound (without ADP) were incubated for 30 minutes at 4° C. • Plates were re-equilibrated to room temperature prior to adding 20 μL ADP to initiate the reaction. • Reaction progress was measured as changes in absorbance at 340 nm wavelength at room temperature (25° C.) Reaction Mix: PKM2 (50 ng/well), ADP (0.7 mM), PEP (0.15 mM), NADH (180 μM), LDH (2 units) in Reaction Buffer Reaction Buffer: 100 mM KCl, 50 mM Tris pH 7.5, 5 mM MgCl2, 1 mM DTT, 0.03% BSA.
PKM2, sequence (P14618 whole entry): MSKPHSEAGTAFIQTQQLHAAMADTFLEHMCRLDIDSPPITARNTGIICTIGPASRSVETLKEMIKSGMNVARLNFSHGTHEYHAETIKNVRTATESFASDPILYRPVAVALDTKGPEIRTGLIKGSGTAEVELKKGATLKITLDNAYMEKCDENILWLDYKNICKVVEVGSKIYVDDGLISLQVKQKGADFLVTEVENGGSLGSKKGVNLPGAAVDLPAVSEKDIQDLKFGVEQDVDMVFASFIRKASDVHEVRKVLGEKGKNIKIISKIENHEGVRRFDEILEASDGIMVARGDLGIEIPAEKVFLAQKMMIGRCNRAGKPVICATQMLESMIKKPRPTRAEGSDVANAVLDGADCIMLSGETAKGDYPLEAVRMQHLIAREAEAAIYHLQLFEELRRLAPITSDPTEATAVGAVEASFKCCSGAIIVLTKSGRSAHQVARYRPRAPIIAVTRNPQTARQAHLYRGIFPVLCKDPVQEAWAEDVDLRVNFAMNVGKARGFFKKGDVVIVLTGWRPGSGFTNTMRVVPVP
One may read the AC50 as the midpoint of the concentration-response curve, whichever way the signal moves. With `COc1ccc(Cl)cc1S(=O)(=O)Nc1ccc2c(c1)sc(=O)n2C`, the AC50 is 10 to 50 µM. For `CCn1c(=O)oc2cc(S(=O)(=O)Nc3ccc(F)cc3)c(C)cc21` the value was 10 to 50 µM. For the compound `CCn1c(=O)oc2ccc(NS(=O)(=O)c3cccs3)cc21`, the half-maximal activity concentration (AC50) is over 100 µM.

`Cc1cc2c(cc1S(=O)(=O)Nc1ccc(F)cc1)oc(=O)n2C` showed an AC50 of 1 to 10 µM. Under `COc1ccc(Cl)cc1S(=O)(=O)Nc1cc2c(cc1Cl)oc(=O)n2C` stands 1 to 10 µM; under `CCn1c(=O)oc2cc(S(=O)(=O)Nc3ccccc3Cl)c(C)cc21`, 1 to 10 µM; under `CCn1c(=O)oc2cc(S(=O)(=O)Nc3ccccc3Cl)ccc21`, 1 to 10 µM. In turn, `Cn1c(=O)oc2cc(Cl)c(S(=O)(=O)Nc3ccc(F)cc3)cc21` came in with an AC50 of 1 to 10 µM. For `CC(=O)c1ccc(S(=O)(=O)Nc2cc3c(cc2C)oc(=O)n3C)cc1` the value was 10 to 50 µM. The compound `CCn1c(=O)oc2cc(C)c(S(=O)(=O)Nc3cc(Cl)ccc3OC)cc21` gave an AC50 of 10 to 50 µM.

Compound `Cn1c(=O)oc2cc(Cl)c(NS(=O)(=O)c3cccc(Cl)c3)cc21` had an AC50 of 10 to 50 µM.

As for `CCn1c(=O)oc2cc(Cl)c(S(=O)(=O)Nc3ccc(F)cc3)cc21`, the AC50 lay in the range of 10 to 50 µM. Under `Cc1cc2oc(=O)n(C)c2cc1NS(=O)(=O)c1ccc(F)cc1` stands 10 to 50 µM; under `COc1ccc(Cl)cc1NS(=O)(=O)c1cc2c(cc1C)oc(=O)n2C`, 1 to 10 µM. Under `COc1ccc(Cl)cc1S(=O)(=O)Nc1ccc2oc(=O)[nH]c2c1` stands 10 to 50 µM; under `Cc1cc2oc(=O)n(C)c2cc1S(=O)(=O)Nc1c(F)cccc1F`, over 100 µM. As to `COc1ccc(C)cc1S(=O)(=O)Nc1cc2[nH]c(=O)oc2cc1C`, the AC50 was 10 to 50 µM. Compound `Cc1cc(C)cc(NS(=O)(=O)c2cc3c(cc2Cl)oc(=O)n3C)c1` showed an AC50 of under 1 µM. For the compound `CCn1c(=O)oc2cc(C)c(NS(=O)(=O)c3cc(Cl)ccc3OC)cc21`, the AC50 was in the range of 10 to 50 µM.

On to `Cc1cc2oc(=O)n(C)c2cc1S(=O)(=O)Nc1ccc(Cl)cc1`, for which the AC50 was under 1 µM. For `Cn1c(=O)oc2cc(F)c(NS(=O)(=O)c3cccs3)cc21` the value was over 100 µM; for `CCn1c(=O)oc2cc(Cl)c(S(=O)(=O)Nc3ccc(Cl)cc3)cc21`, 1 to 10 µM; for `Cn1c(=O)oc2cc(F)c(S(=O)(=O)Nc3ccc(Cl)cc3)cc21`, 1 to 10 µM. For `Cc1cc2oc(=O)n(C)c2cc1NS(=O)(=O)c1ccccc1C` the value was 1 to 10 µM.

For `CCn1c(=O)oc2cc(C)c(S(=O)(=O)Nc3ccccc3Cl)cc21`, the AC50 was in the range of 10 to 50 µM. For the compound `COc1ccc(C)cc1S(=O)(=O)Nc1cc2c(cc1Cl)oc(=O)n2C`, the AC50 fell in the range of 1 to 10 µM. Under `Cc1cc2oc(=O)n(C)c2cc1S(=O)(=O)Nc1ccccc1F` stands 1 to 10 µM; under `Cc1cc2oc(=O)n(C)c2cc1NS(=O)(=O)c1cccc(Cl)c1`, 10 to 50 µM; under `COc1ccc(Cl)cc1NS(=O)(=O)c1cc2c(cc1Cl)oc(=O)n2C`, 1 to 10 µM. Under `COc1ccc(C)cc1S(=O)(=O)Nc1ccc2oc(=O)[nH]c2c1` stands 10 to 50 µM; under `Cn1c(=O)oc2cc(Cl)c(S(=O)(=O)Nc3ccc(Cl)cc3)cc21`, 10 to 50 µM; under `O=c1sc2ccc(S(=O)(=O)Nc3ccc(F)cc3)cc2s1`, 10 to 50 µM.

`Cn1c(=O)oc2cc(F)c(NS(=O)(=O)c3c(F)cccc3F)cc21` had a concentration at half-maximal activity (AC50) of over 100 µM. For `Cc1cc2sc(=O)sc2cc1S(=O)(=O)Nc1ccccc1` the value was under 1 µM. Under `Cc1cc2sc(=O)sc2cc1S(=O)(=O)Nc1ncc(C(F)(F)F)cc1Cl` stands 1 to 10 µM; under `O=c1sc2ccc(S(=O)(=O)Nc3ccc(Cl)cc3)cc2s1`, 1 to 10 µM; under `Cc1cc2oc(=O)n(C)c2cc1NS(=O)(=O)c1cc(Cl)ccc1Cl`, 10 to 50 µM. For `Cc1cc2sc(=O)sc2cc1S(=O)(=O)NC1CCCCC1` the value was 10 to 50 µM; for `COc1ccc(Cl)cc1NS(=O)(=O)c1ccc2sc(=O)sc2c1`, 10 to 50 µM; for `Cn1c(=O)sc2ccc(NS(=O)(=O)c3c(F)cccc3F)cc21`, 1 to 10 µM.

In turn, `Cc1cc2sc(=O)sc2cc1S(=O)(=O)Nc1ccc(F)cc1` showed an AC50 of 1 to 10 µM. Under `O=c1[nH]c2cc(NS(=O)(=O)c3c(F)cccc3F)ccc2s1` stands 10 to 50 µM; under `Cc1cc2sc(=O)sc2cc1S(=O)(=O)Nc1ccccc1F`, 10 to 50 µM; under `CCn1c(=O)sc2ccc(NS(=O)(=O)c3cccs3)cc21`, 10 to 50 µM.

Take `Cc1cc2sc(=O)sc2cc1S(=O)(=O)Nc1ccccc1Cl`: the AC50 lay within 1 to 10 µM. Consider `O=c1[nH]c2cc(NS(=O)(=O)c3ccccc3)ccc2s1`, for which the AC50 lay within 10 to 50 µM. Turning to `COc1ccc(Cl)cc1NS(=O)(=O)c1cc2sc(=O)sc2cc1C`, the AC50 is 1 to 10 µM.

Consider `CCn1c(=O)sc2ccc(NS(=O)(=O)c3cc(Cl)ccc3OC)cc21`, for which the AC50 lay in the range of 1 to 10 µM. Under `Cc1cc2sc(=O)sc2cc1S(=O)(=O)Nc1ccc(Cl)cc1` stands 1 to 10 µM. For `COc1ccc(Cl)cc1S(=O)(=O)Nc1ccc2sc(=O)[nH]c2c1` the value was 1 to 10 µM; for `Cc1cc2oc(=O)sc2cc1NS(=O)(=O)c1cccs1`, 10 to 50 µM; for `COc1cccc(F)c1S(=O)(=O)N(C)c1ccc2sc(=O)n(C)c2c1`, 10 to 50 µM. `COc1ccc(C)cc1S(=O)(=O)Nc1ccc2sc(=O)n(C)c2c1`: the AC50 lay in the range of 1 to 10 µM. For `CCC(C)n1c(=O)sc2ccc(NS(=O)(=O)c3cc(Cl)ccc3OC)cc21` (centres unmarked) the value was 1 to 10 µM. For `COc1ccc(Cl)cc1S(=O)(=O)Nc1ccc2sc(=O)n(C)c2c1` the value was 10 to 50 µM; for `Cc1cc2c(cc1NS(=O)(=O)c1cccs1)oc(=O)n2C`, 10 to 50 µM. For `CCn1c(=O)sc2ccc(NS(=O)(=O)c3c(F)cccc3F)cc21` the value was 1 to 10 µM. With `O=c1[nH]c2cc(NS(=O)(=O)c3cccs3)ccc2s1`, the AC50 lay within 10 to 50 µM. Under `Cn1c(=O)sc2ccc(NS(=O)(=O)c3ccccc3)cc21` stands 10 to 50 µM.

`Cn1c(=O)sc2ccc(NS(=O)(=O)c3cccs3)cc21`: the AC50 is 10 to 50 µM. In the case of `CCn1c(=O)sc2ccc(NS(=O)(=O)c3cc(C)ccc3OC)cc21`, the concentration at half-maximal activity (AC50) is 1 to 10 µM.

For the compound `Cn1c(=O)sc2cc(NS(=O)(=O)c3ccc(F)cc3)ccc21`, the AC50 lay within 10 to 50 µM. For `O=c1[nH]c2cc(NS(=O)(=O)c3cccc(Cl)c3)ccc2s1` the value was 10 to 50 µM; for `Cc1cc(C)cc(NS(=O)(=O)c2ccc3c(c2)sc(=O)n3C)c1`, under 1 µM; for `COc1ccc(Cl)cc1S(=O)(=O)N1CCCN(S(=O)(=O)c2ccc3c(c2)sc(=O)n3C)CC1`, under 1 µM. Under `Cn1c(=O)sc2cc(S(=O)(=O)N3CCCN(S(=O)(=O)c4c(F)cccc4F)CC3)ccc21` stands 1 to 10 µM; under `COc1ccc(Cl)cc1S(=O)(=O)N1CCN(S(=O)(=O)c2ccc3c(c2)sc(=O)n3C)CC1`, 1 to 10 µM; under `Cn1c(=O)sc2cc(S(=O)(=O)N3CCN(S(=O)(=O)c4c(F)cccc4F)CC3)ccc21`, under 1 µM.

`Cn1c(=O)sc2cc(S(=O)(=O)N3CCN(S(=O)(=O)c4ccccc4)CC3)ccc21` registered an AC50 of 1 to 10 µM. Under `COc1ccc(S(=O)(=O)N2CCN(S(=O)(=O)c3ccc4c(c3)sc(=O)n4C)CC2)cc1` stands under 1 µM; under `COc1ccc(S(=O)(=O)N2CCCN(S(=O)(=O)c3ccc4c(c3)sc(=O)n4C)CC2)cc1`, 1 to 10 µM; under `Cn1c(=O)sc2cc(S(=O)(=O)N3CCCN(S(=O)(=O)c4ccccc4)CC3)ccc21`, 1 to 10 µM. Under `Cc1cc(C)cc(NS(=O)(=O)c2cc3sc(=O)n(C)c3cc2Cl)c1` stands under 1 µM. Under `Cn1c(=O)sc2cc(S(=O)(=O)Nc3cccc4ccccc34)ccc21` stands 1 to 10 µM; under `Cn1c(=O)sc2cc(S(=O)(=O)Nc3ccc4ccccc4c3)ccc21`, under 1 µM. In the case of `Cn1c(=O)sc2cc(S(=O)(=O)Nc3cccc4ncccc34)ccc21`, the AC50 was in the range of 1 to 10 µM. Under `Cn1c(=O)sc2cc(S(=O)(=O)Nc3ccc4ncccc4c3)ccc21` stands 1 to 10 µM; under `Cn1c(=O)sc2cc(S(=O)(=O)Nc3ccc(F)c(Cl)c3)ccc21`, under 1 µM. Under `Cn1c(=O)sc2cc(S(=O)(=O)Nc3cccc(Cl)c3)ccc21` stands under 1 µM. Under `Cc1cc(NS(=O)(=O)c2ccc3c(c2)sc(=O)n3C)ccc1F` stands under 1 µM; under `Cn1c(=O)oc2cc(S(=O)(=O)Nc3ccccc3Cl)ccc21`, 1 to 10 µM.

Consider `COc1ccc(Cl)cc1NS(=O)(=O)c1cc2oc(=O)n(C)c2cc1C`, for which the AC50 was 1 to 10 µM. For `Cc1cc2c(cc1S(=O)(=O)N1CCCN(c3ccc(C(F)(F)F)cn3)CC1)oc(=O)n2C` the value was 1 to 10 µM; for `Cc1cc2c(cc1S(=O)(=O)N1CCN(c3ccc(C(F)(F)F)cn3)CC1)oc(=O)n2C`, 1 to 10 µM; for `CN(Cc1ccccc1)S(=O)(=O)c1ccc2c(c1)oc(=O)n2C`, 1 to 10 µM. For `Cc1cc2c(cc1S(=O)(=O)N1CCN(Cc3ccccc3)CC1)oc(=O)n2C` the value was 1 to 10 µM; for `Cn1c(=O)oc2cc(S(=O)(=O)NC(C)(C)C)ccc21`, over 100 µM; for `Cn1c(=O)oc2cc(S(=O)(=O)Nc3ccccn3)ccc21`, 10 to 50 µM. Under `Cc1cc(C)cc(NS(=O)(=O)c2cc3oc(=O)n(C)c3cc2C)c1` stands under 1 µM. In the case of `O=c1oc2cc(S(=O)(=O)Nc3ccc(Cl)cc3)ccc2n1Cc1ccccc1`, the AC50 was 1 to 10 µM. Under `O=c1oc2cc(S(=O)(=O)Nc3ccc(F)cc3)ccc2n1CCc1ccccc1` stands 1 to 10 µM; under `O=c1oc2cc(S(=O)(=O)Nc3ccc(F)cc3)ccc2n1Cc1ccccc1`, 1 to 10 µM.
